Measured values reported in patent US12599646B2, “Peptide-containing composition for use for treating neoplastic lesions” (CYTOVATION ASA, priority 2020, dated 2026).
Square brackets hold non-standard residues; d marks the D form. Peptide text beside a SMILES is read from it.

What was measured:
[1] = Saturated solubility of CyPep-1 in liquid excipients; format: physicochemical; details: 25° C.
Method: A sample of the saturated supernatant was examined using light microscopy with a magnification of 200-1000× using a LEICA® (Germany) DME light microscope. The saturated supernatant was mounted on a microscope slide and examined immediately using both polarised and non-polarised light for the presence of CyPep-1 crystals. The dilution (Step (vii)) was performed immediately after the centrifugation step. • (vii) Since the solubility of CyPep-1 in these excipients was unknown, an appropriate dilution was made to achieve a concentration of CyPep-1 in sample diluent (deionised water) that was above the limit of quantification of the HPLC method, prior to analysis. For excipients which were saturated following the addition of ca. 20 mg of CyPep-1 the following dilution was performed: • (a) Into a 10 mL volumetric flask ca. 50 mg of the saturated solution was weighed. • (b) The volumetric flask from Step (a) was made to volume with sample diluent (deionised water) and vortex mixed for 30 s. • (c) An aliquot of the diluted sample from Step (b) was transferred to an HPLC vial and analysed by HPLC as described above. • (viii) For excipients which were saturated following the addition of ca. 40 mg of CyPep-1 the dilution was performed as detailed in Step (vii), however a 20 mL volumetric flask was used. Stability Testing—Method

neoplastic cells = details: as shown in WO 2011/092347; cited from earlier work
[2] = Short-term stability testing: percentage recovery of CyPep-1 from formulations; details: 40° C., t=2 weeks
Method: HPLC was performed using a PHENOMENEX® (USA) KINETEX® C18 5 μm 100 Å 4.6×250 mm column and a PHENOMENEX® SecurityGuard C18 5 μm guard column, as follows:
The optimal extraction method developed was performed as follows: • (i) 150 mg formulation was weighed into a 10 ml volumetric flask. • (ii) The flask was made up to volume with 50:50 v/v water:ethanol. • (iii) The volumetric flask was vortex-mixed for 30 s to disperse the formulation, yielding an extraction solution containing CyPep-1 at a concentration of 150 μg/ml. • (iv) A PTFE magnetic stirrer was added to the volumetric flask from Step (iii) and the contents of the volumetric flask was stirred for 2 h at 500 rpm. • (v) The extraction solution from Step (iv) was transferred to centrifuge tubes and the samples were centrifuged at 16,000×g for 10 min at 25° C. • (vi) The supernatant was filtered using a 0.2 μm PTFE filter.
The obtained, filtered solution was used for HPLC analysis.
The 10 formulations described above which were not discarded were taken into stability testing. Samples of the formulations were stored at 2-8° C., 25° C. and 40° C. After 2 weeks, samples stored at 25° C. and 40° C. were assessed; after 4 weeks and 11 weeks samples stored at 2-8° C. and 25° C. were assessed.
Stability of CyPep-1 in each formulation was determined based on how much CyPep-1 could be recovered at each time point at each temperature. […]

CC[C@@H](C)[C@@H](NC(=O)[C@@H](C)NC(=O)[C@@H](CCCCN)NC(=O)[C@@H](C)NC(=O)[C@H](NC(=O)[C@@H](CCCNC(=N)N)NC(=O)[C@@H](CC(C)C)NC(=O)[C@H](NC(=O)[C@@H](CCCCN)NC(=O)CNC(=O)[C@@H](CCCNC(=N)N)NC(=O)[C@@H](CCCNC(=N)N)NC(=O)[C@@H](CCCNC(=N)N)NC(=O)[C@@H](CCC(N)=O)NC(=O)[C@@H](CCCNC(=N)N)NC(=O)[C@@H](CCCNC(=N)N)NC(=O)[C@@H](CCCCN)NC(=O)[C@@H](CCCCN)NC(=O)[C@@H](CCCNC(=N)N)NC(=O)CNC(=O)[C@H](N)Cc1ccc(O)cc1)[C@H](C)O)C(C)C)C(=O)N[C@H](Cc1ccc(O)cc1)C(=O)N[C@H](CCCCN)C(=O)N[C@H](CCCNC(=N)N)C(=O)N[C@H](Cc1ccc(O)cc1)C(=O)N[C@@H](C(=O)N[C@H](CCC(=O)O)C(=O)O)[C@H](C)CC [CyPep-1] (H-[dY]G[dR][dK][dK][dR][dR][dQ][dR][dR][dR]G[dK][dT][dL][dR][dV][dA][dK][dA][dI][dY][dK][dR][dY][dI][dE]-OH; N-terminus and C-terminus assumed)
saturated solubility of CyPep-1 ([1]; benzyl alcohol): more than 10 % w/w
saturated solubility of CyPep-1 ([1]; deionised water (pH 4, 5, 6 or 7)): more than 10 % w/w
saturated solubility of CyPep-1 ([1]; ethanol): more than 10 % w/w
saturated solubility of CyPep-1 ([1]; phenoxyethanol): more than 10 % w/w
cytotoxicity to neoplastic cells (neoplastic cells): selectively cytotoxic
stability of CyPep-1 in cream and ointment formulations [2]: unstable
